# Experimental data published in patent US7425614B2, “Neuroprotective therapeutics preventing ERK/MAPK activation through the NMDA receptor” (Children's Medical Center Corporation, priority 2003, dated 2008).
# Read-outs that look alike come from different tables or passages of the source.
# B1: RasGRF1 amino acids 835-913: shorter peptide of the RasGRF1-specific sequence (protein, UniProt Q13972 835-913, looked up, fragment)
# chain: EVSMREESDIDQNQSDDGDTETSPTKSPTTPKSVKNKNSSEFPLFSYNNGVVMTSCRELDNNRSALSAASAFAIATAGA
# B2: RasGRF1 amino acids 1-720: N-terminal portion of RasGRF1, which contains multiple functional domains (protein, UniProt Q13972 1-720, looked up, fragment)
# chain: MQKGIRLNDGHVASLGLLARKDGTRKGYLSKRSSDNTKWQTKWFALLQNLLFYFESDSSSRPSGLYLLEGCVCDRAPSPKPALSAKEPLEKQHYFTVNFSHENQKALELRTEDAKDCDEWVAAIAHASYRTLATEHEALMQKYLHLLQIVETEKTVAKQLRQQIEDGEIEIERLKAEITSLLKDNERIQSTQTVAPNDEDSDIKKIKKVQSFLRGWLCRRKWKTIIQDYIRSPHADSMRKRNQVVFSMLEAEAEYVQQLHILVNNFLRPLRMAASSKKPPITHDDVSSIFLNSETIMFLHQIFYQGLKARISSWPTLVLADLFDILLPMLNIYQEFVRNHQYSLQILAHCKQNRDFDKLLKHYEAKPDCEERTLETFLTYPMFQIPRYILTLHELLAHTPHEHVERNSLDYAKSKLEELSRIMHDEVSETENIRKNLAIERMIIEGCEILLDTSQTFVRQGSLIQVPMSEKGKITRGRLGSLSLKKEGERQCFLFSKHLIICTRGSGGKLHLTKNGVISLIDCTLLEEPESTEEEAKGSGQDIDHLDFKIGVEPKDSPPFTVILVASSRQEKAAWTSDISQCVDNIRCNGLMMNAFEENSKVTVPQMIKRTREGTREAEMSRSDASLYCDDVDIRFSKTMNSCKVLQIRYASVERLLERLTDLRFLSIDFLNTFLHSYRVFTTAIVVLDKLITIYKKPISAIPARWLRSLELLFASGQNN
# B3: RasGRF1 amino acids 714-1244: C-terminal prey-containing sequence of RasGRF1 (protein, UniProt Q13972 714-1244, looked up, fragment)
# chain: FASGQNNKLLYGEPPKSPRATRKFSSPPPLSITKTSSPSRRRKLSLNIPIITGGKALDLAALSCNSNGYTSMYSAMSPFSKATLDTSKLYVSSSFTNKIPDEGDTTPEKPEDPSALSKQSSEVSMREESDIDQNQSDDGDTETSPTKSPTTPKSVKNKNSSEFPLFSYNNGVVMTSCRELDNNRSALSAASAFAIATAGANEGTPNKEKYRRMSLASAGFPPDQRNGDKEFVIRRAATNRVLNVLRHWVSKHSQDFETNDELKCKVIGFLEEVMHDPELLTQERKAAANIIRTLTQEDPGDNQITLEEITQMAEGVKAEPFENHSALEIAEQLTLLDHLVFKKIPYEEFFGQGWMKLEKNERTPYIMKTTKHFNDISNLIASEIIRNEDINARVSAIEKWVAVADICRCLHNYNAVLEITSSMNRSAIFRLKKTWLKVSKQTKALIDKLQKLVSSEGRFKNLREALKNCDPPCVPYLGMYLTDLAFIEEGTPNYTEDGLVNFSKMRMISHIIREIRQFQQTAYKIEHQAKV
# B4: RasGRF1 amino acids 714-841: shorter peptide of the RasGRF1-specific sequence (protein, UniProt Q13972 714-841, looked up, fragment)
# chain: FASGQNNKLLYGEPPKSPRATRKFSSPPPLSITKTSSPSRRRKLSLNIPIITGGKALDLAALSCNSNGYTSMYSAMSPFSKATLDTSKLYVSSSFTNKIPDEGDTTPEKPEDPSALSKQSSEVSMREE
# What was measured:
# NR2B = biological target: T1, NR2B (Rattus norvegicus, UniProt P35439+Q00960); conditions: 3 μM; heterologous expression systems; cited from earlier work
# T1 construct: host or cells: heterologous expression systems (not specified)
# ERK = experiment: phospho-ERK immunocytochemistry in cultured hippocampal neurons; format: cell-based, rat
# Protocol: Neurons from 18 day rat embryos were dissociated using trypsin and plated on coverslips coated with poly-L-ysine in minimal essential medium (MEM) with 10% NU serum (BD Biosciences, Le Pont de Claix, France) at densities of 30,000 cells/cm^2 as described (Brewer, G. J. (1995) J. Neurosci. Res. 42, 674-683). On days 7 and 11 of culture incubation, half of the medium was changed to MEM with 2% B27 supplement (Invitrogen).
# Cells were transfected with cDNA for EGFP fusion proteins (LipofectAMINE 2000; Invitrogen) or by pseudoviral infection using a Sindbis expression system (Invitrogen). Neurons were incubated with cDNA and LipofectAMINE for 2 hr, rinsed, and incubated with culture media (MEM with 2% of B27 supplement) 17 hr prior to the experiment. For viral delivery, neuronal cultures were incubated 30 min with pseudoviral constructs diluted 200-500× in culture media. Cultures were rinsed and incubated in media for 15 hr. 0.1% to 1.5% of neurons were fluorescent after expressing LipofectAMINE-delivered constructs while Sindbis infection yielded 1%-10% transfection efficiency. Most of the experiments were performed on 12-14 days in vitro (div) cultures unless otherwise indicated.
# Three hours before stimulation, TTX (1 μM), CNQX (40 μM), APV (100 μM), and nimodipine (5 μM) were added to neurons. For stimulation, coverslips with neurons were transferred into the following solutions.
# (1) 100 μM NMDA, 10 μM glycine, 1 μM TTX, 40 μM CNQX, 5 μM nimodipine dissolved in culture media and incubated for 3 min. […]
# After stimulation, neurons were fixed with 4% formaldehyde and labeled with rabbit anti-phospho-p44/42 ERK antibody (Cell Signaling) and with mouse anti-MAP2 antibody (Sternberger Monoclonals). Cy3-conjugated goat anti-rabbit IgG and Cy5-conjugated goat antimouse IgG (Jackson Immunoresearch Laboratories, West Grove, Pa.) were secondary antibodies. NMDA and all antagonists were from Tocris Neuramin. BDNF was from Calbiochem. Images were acquired with an Olympus Fluoview-500 confocal microscope (40×; 1.0 NA) and quantified using Olympus Fluoview software. In each experiment, the pERK fluorescence of the cell soma was measured for 25 neurons taken from consecutive fields. Phospho-ERK fluorescence data were normalized to the values obtained in nontransfected cells after NMDA stimulation. The background fluorescence (mean fluorescence of nonstimulated neurons) was subtracted prior to normalization.
# NMDA receptors = conditions: cited from earlier work
# NMDA receptor = experiment: whole-cell recordings of NMDAR-mediated currents in cultured hippocampal neurons; format: cell-based, rat
# NR2A = biological target: T2, NR2A (Rattus norvegicus, UniProt Q00959); conditions: 3 μM; heterologous expression systems; cited from earlier work
# T2 construct: host or cells: heterologous expression systems (not specified)
# [1] = tested on: CREB transcription factor; experiment: phosphorylation of CREB in cultured hippocampal neurons; format: cell-based, rat; conditions: control experiments
# SynGAP = experiment: phosphorylation of SynGAP in cultured hippocampal neurons; format: cell-based, rat; conditions: control experiments
# full-length NR2B = biological target: T3, full-length NR2B (Rattus norvegicus, UniProt Q00960); experiment: in vitro binding of in vitro translated HA-tagged RasGRF1 fragments to full-length NR2B (co-immunoprecipitation); conditions: epitope-tagged RasGRF1 fragments
# T3 construct: In vitro translated full-length NR2B and HA-tagged RasGRF1 fragments were co-immunoprecipitated with anti-HA antibody; made in house; host or cells: cell-free in vitro translation (35S-labelled)
# From the text: For in vitro translation, fragments of rat NR2B and rat RasGRF1 were made by PCR with 5′-primers containing AU1- and HA-tag encoding sequences; amplified sequences were subcloned into pcDNA3.1. For 293T transfection, the following cDNAs were used: mouse RasGRF1 in pcDNA3, GFP-rat NR2B, GFP rat NR2A in pcDNA1.1, and rat NR1 in pEGFP-C1 (Clontech). EGFP fusion constructs were made by subcloning cDNA fragments encoding different portions of NR2B and RasGRF1 into pEGFP-C1 (Clontech). EGFP fusion constructs were transferred from pEGFP into pSinRep5 and used for preparation of the Sindbis pseudovirus gene transfer system according to the manufacturer's protocol (Invitrogen, Carlsbad, Calif.).
# For in vitro binding experiments, equimolar amounts of in vitro translated ^35S-labeled proteins (calculated from radioactivity of the excised protein band and cysteine content in the specific fragment) were incubated with a 3-fold molar excess of translated RasGRF1 for 30 min at 30° C., diluted with RIPA buffer, and immunoprecipitated with anti-HA-agarose (Santa Cruz). In competition experiments, RasGRF1 and NR2B were immunoprecipitated for 2 hr at 4° C. from solubilized rat brain microsomes in the presence of 10 μM NusA, 10 μM NusA-RasGRF1-BD, or 5 μM NusA-NR2B-BD.
# T3 sequence (Q00960 27-1482 E1256K/V1430S/T1431A): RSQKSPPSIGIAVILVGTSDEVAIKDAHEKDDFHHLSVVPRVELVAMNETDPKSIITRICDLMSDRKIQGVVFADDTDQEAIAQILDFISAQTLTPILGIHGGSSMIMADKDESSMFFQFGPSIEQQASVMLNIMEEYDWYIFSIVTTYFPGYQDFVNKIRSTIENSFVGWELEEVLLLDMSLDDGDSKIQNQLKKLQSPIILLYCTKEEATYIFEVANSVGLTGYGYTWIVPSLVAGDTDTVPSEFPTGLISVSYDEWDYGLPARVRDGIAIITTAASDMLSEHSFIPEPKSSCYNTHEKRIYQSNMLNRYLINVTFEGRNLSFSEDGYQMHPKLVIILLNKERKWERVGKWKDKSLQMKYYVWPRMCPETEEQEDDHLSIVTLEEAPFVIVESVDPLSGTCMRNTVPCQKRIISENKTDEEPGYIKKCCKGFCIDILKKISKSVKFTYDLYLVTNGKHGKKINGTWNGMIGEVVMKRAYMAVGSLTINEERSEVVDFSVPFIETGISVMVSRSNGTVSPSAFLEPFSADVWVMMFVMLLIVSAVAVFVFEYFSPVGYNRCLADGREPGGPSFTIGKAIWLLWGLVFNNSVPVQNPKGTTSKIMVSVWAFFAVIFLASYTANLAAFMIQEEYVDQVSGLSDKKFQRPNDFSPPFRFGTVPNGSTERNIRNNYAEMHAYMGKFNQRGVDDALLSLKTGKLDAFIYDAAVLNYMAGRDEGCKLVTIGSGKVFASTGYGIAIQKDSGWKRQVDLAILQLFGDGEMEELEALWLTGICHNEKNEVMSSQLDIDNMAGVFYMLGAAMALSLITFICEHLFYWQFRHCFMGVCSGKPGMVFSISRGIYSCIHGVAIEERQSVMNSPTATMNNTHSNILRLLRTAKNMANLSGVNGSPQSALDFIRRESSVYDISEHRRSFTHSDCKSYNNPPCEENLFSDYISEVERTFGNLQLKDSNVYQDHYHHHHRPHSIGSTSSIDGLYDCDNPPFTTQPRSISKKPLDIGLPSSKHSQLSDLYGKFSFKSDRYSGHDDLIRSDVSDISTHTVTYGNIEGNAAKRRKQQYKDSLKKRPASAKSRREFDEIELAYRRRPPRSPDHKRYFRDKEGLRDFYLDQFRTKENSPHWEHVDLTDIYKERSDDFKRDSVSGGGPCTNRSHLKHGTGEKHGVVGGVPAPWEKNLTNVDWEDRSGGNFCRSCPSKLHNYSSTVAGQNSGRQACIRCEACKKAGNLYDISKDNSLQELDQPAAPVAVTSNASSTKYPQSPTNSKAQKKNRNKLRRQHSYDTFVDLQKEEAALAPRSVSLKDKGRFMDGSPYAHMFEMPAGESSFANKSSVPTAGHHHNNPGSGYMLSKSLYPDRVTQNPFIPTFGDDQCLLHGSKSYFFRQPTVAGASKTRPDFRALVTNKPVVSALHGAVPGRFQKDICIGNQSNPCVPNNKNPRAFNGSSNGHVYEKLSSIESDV
# T2 sequence (Q00959 23-1464): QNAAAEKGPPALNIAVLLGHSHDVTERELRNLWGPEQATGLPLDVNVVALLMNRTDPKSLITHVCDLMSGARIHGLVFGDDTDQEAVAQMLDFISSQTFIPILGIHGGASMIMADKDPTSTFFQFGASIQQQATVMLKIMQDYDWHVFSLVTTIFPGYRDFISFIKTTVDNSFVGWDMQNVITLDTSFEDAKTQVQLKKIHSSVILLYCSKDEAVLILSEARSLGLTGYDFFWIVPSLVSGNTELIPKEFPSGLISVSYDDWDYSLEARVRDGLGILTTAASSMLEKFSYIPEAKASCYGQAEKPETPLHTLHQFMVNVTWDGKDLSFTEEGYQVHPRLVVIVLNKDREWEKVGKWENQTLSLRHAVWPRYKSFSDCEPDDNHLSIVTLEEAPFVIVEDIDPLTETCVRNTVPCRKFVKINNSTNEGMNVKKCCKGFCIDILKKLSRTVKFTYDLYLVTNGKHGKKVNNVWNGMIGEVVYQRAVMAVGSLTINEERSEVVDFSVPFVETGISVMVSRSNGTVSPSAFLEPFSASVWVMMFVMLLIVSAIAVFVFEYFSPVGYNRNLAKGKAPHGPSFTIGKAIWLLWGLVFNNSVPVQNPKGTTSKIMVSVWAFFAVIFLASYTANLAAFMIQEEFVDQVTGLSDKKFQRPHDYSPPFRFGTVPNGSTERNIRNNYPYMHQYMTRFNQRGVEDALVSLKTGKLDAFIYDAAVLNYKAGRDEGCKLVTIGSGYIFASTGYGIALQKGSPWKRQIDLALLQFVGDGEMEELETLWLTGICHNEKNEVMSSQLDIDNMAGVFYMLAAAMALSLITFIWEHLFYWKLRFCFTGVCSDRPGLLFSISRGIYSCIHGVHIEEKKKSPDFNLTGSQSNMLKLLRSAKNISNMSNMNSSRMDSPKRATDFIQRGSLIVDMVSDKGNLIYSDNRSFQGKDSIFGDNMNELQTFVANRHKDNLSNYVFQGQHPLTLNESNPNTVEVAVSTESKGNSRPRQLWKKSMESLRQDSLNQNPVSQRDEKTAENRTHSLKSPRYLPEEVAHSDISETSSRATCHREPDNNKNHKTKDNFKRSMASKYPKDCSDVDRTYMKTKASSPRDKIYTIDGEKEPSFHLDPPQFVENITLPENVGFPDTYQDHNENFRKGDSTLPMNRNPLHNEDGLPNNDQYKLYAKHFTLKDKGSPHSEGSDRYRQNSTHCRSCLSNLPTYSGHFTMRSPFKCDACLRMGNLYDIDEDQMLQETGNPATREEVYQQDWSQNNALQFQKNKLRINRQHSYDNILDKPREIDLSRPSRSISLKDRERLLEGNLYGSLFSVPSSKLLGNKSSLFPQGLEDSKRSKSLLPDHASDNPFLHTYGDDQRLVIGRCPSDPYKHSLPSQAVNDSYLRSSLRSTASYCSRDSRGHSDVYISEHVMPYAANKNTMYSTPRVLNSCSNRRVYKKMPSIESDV
# T1 sequence (Q00960 27-1482, other chains not shown): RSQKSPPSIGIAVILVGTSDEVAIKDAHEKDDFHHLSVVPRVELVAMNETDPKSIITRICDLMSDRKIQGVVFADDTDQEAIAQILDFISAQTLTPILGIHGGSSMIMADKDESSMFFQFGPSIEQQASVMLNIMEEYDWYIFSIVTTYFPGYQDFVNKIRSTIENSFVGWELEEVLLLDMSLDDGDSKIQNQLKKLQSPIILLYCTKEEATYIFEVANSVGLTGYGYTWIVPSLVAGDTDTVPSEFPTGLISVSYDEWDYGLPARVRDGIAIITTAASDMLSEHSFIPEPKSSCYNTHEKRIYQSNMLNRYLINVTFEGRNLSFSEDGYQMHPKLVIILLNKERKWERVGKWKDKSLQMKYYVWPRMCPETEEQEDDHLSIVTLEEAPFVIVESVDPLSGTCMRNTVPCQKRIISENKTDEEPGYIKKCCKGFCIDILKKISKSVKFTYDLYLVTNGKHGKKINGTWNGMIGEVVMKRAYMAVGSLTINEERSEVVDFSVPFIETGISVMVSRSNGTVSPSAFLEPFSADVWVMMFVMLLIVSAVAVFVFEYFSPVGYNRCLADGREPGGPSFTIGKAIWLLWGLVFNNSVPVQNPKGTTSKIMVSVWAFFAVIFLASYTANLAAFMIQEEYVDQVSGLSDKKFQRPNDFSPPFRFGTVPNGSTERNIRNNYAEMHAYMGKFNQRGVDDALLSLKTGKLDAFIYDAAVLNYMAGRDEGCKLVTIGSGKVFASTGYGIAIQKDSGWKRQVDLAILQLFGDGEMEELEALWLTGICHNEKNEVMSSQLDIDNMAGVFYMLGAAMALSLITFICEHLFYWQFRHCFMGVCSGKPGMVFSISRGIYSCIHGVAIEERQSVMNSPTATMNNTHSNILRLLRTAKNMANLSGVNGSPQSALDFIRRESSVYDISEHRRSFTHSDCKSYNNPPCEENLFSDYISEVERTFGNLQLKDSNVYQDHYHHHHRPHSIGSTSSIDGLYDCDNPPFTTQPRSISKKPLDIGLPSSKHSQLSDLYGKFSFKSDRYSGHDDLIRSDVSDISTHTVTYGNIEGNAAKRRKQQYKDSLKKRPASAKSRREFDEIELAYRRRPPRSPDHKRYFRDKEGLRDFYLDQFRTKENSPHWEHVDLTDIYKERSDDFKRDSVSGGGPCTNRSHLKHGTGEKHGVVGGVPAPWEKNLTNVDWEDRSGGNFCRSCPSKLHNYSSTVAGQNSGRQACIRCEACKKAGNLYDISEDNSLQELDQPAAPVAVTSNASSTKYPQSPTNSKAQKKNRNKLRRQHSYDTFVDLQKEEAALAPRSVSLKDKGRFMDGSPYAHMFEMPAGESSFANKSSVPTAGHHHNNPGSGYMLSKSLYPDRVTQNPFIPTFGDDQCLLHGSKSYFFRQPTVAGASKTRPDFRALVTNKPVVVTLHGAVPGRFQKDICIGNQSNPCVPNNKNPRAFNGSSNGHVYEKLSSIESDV
molecule,measurement,setting,value
CC(C(O)c1ccc(O)cc1)N1CCC(Cc2ccccc2)CC1 (stereo not drawn) [ifenprodil],inhibition of NR2B-mediated current,NR2B,up to 80%
same,inhibition at 3 µM,"ERK; Rattus norvegicus, Hippocampal neuron, 3 μM, hippocampal neurons 8 div, read-out: inhibition of NMDAR activated ERK",70%
same,degree of ifenprodil-sensitive ERK activation with days in culture,ERK; during neuron maturation,did not change significantly
same,inhibition of NMDA-mediated current,NMDA receptors; 3-week-old cultures,20%-30
same,inhibition of NMDA-mediated current,NMDA receptors; young neuronal cultures,~70%
same,decrease of the portion of the ifenprodil-sensitive NMDA current with days in culture,NMDA receptor,~25%
same,frequency of spontaneous NMDAR EPSCs,NMDA receptor,significantly reduced
same,suppression of NMDAR current,NMDA receptor,60%
same,effect on NR2A-mediated current,NR2A,has no effect
COc1ccc(S(=O)(=O)N(CCO)c2ccccc2CN(C)C/C=C/c2ccc(Cl)cc2)cc1 [KN-93],NMDA-dependent ERK activation,ERK; 5 μM in the incubation media,had no effect
same,bicuculline-induced ERK activation,"ERK; cultured hippocampal neurons, 10 μM bicuculline",altered neither
same,NMDA-induced (NMDAR-dependent) ERK activation,"ERK; cultured hippocampal neurons, 100 μM NMDA",altered neither
same,phosphorylation of CREB,[1],effectively suppressed
same,phosphorylation of SynGAP,SynGAP,effectively suppressed
B1,binding to NR2B in vitro,full-length NR2B,did not bind
B2,binding to NR2B in vitro,full-length NR2B,did not bind
B3,binding to NR2B in vitro,full-length NR2B,bound
B4,binding to NR2B in vitro,full-length NR2B,did not bind
